Laboratory results published in patent US20130066055A1, “NEW BINDER-DRUG CONJUGATES (ADCS) AND USE THEREOF” (Bayer Intellectual Property GmbH, priority 2011, published 2013).
Several values for one entry are separate records, joined by “and”; a condition that tells them apart may be missing. Equal values may be shown once. Where a name gives a salt, the structure may show the parent alone. Square brackets hold non-standard residues; d marks the D form. Peptide text beside a SMILES is read from it. * marks the point of attachment. X2 = CC(C)[C@@H](C(=O)*)N(C)CCCCCCN1C(=O)CC(SC[C@H](N)C(=O)O)C1=O; X3 = CC(C)[C@@H](C(=O)*)N(C)CCOCCOCCOCCC(=O)NCCCC[C@H](N)C(=O)O; X4 = C[C@@H](O)[C@@H](C(=O)*)N(C)CCCCCC(=O)NCCCC[C@H](N)C(=O)O; X1 = CC(C)[C@@H](C(=O)*)N(C)CCCCCC(=O)NCCCC[C@H](N)C(=O)O; Dolaproine = CO[C@@H]([C@@H]1CCCN1)[C@@H](C)C(=O)O; Dil = CC[C@H](C)[C@H](NC)[C@@H](CC(=O)O)OC; Oxazinan2yl(1,2) = C1CCN(*)OC1

Columns and labels:
[1] = Caco-2 flux assay for cell permeability; type: in vitro ADME; conditions: human, Caco-2 cells, basal to apical
Protocol: The cell permeability of a substance can be investigated by means of in vitro testing in a flux assay using Caco-2 cells [M. D. Troutman and D. R. Thakker, Pharm. Res. 20 (8), 1210-1224 (2003)]. For this purpose, the cells were cultured for 15-16 days on 24-well filter plates. For the determination of permeation, the respective working example was applied in a HEPES buffer to the cells either apically (A) or basally (B) and incubated for 2 hours. After 0 hours and after 2 hours, samples were taken from the cis and trans compartments. The samples were separated by HPLC (Agilent 1200, Böblingen, Germany) using reverse phase columns. The HPLC system was coupled via a Turbo Ion Spray Interface to a Triple Quadropol mass spectrometer API 4000 (Applied Biosystems Applera, Darmstadt, Germany). The permeability was evaluated on the basis of a Papp value, which was calculated using the formula published by Schwab et al. [D. Schwab et al., J. Med. Chem. 46, 1716-1725 (2003)].

tubulin = assay: Fluorescence-based microtubule (tubulin) polymerization assay; type: biochemical
Protocol: Tubulin polymerization was investigated using the “Fluorescence-based Microtubule Polymerisation Assay Kit” from Cytoskeleton (Denver, Colo., USA; order number: BK011). With this assay, GTP is added to unpolymerized tubulin, allowing polymerization to take place spontaneously. The assay is based on the binding of the fluorophore 4′,6-di-amidino-2-phenylindole (DAPI) to tubulin. Free and bound DAPI can be differentiated on the basis of different emission spectra.
[…] In addition to the buffer control, paclitaxel, with a polymerization-increasing effect, and vinblastin, with a polymerization inhibiting effect, were run additionally as assay controls. Measurement was carried out using 96-well plates with a half base area. The kinetics of the tubulin polymerization were monitored in a Fluorimeter at 37° C. for 1 hour. The excitation wavelength was 355 nm, and emission was monitored at 460 nm. For the region of linear increase within the first 10 minutes, a calculation was made of the change in fluorescence per minute (ΔF/min), which represents the polymerization rate of the microtubuli. The potency of the test substances was quantified on the basis of their respective reduction of the polymerization rate.

[2] = target: T1, P-glycoprotein (P-gp, ABCB1) (Homo sapiens, UniProt P08183); assay: Flux assay in P-gp overexpressing L-MDR1 cells; type: in vitro ADME; conditions: LLC-PK1, basal to apical
T1 construct: expressed in transfected cells; host or cells: LLC-PK1 (pig kidney) cells transfected with human MDR1 (L-MDR1 cells)
T1 sequence (P08183 whole entry): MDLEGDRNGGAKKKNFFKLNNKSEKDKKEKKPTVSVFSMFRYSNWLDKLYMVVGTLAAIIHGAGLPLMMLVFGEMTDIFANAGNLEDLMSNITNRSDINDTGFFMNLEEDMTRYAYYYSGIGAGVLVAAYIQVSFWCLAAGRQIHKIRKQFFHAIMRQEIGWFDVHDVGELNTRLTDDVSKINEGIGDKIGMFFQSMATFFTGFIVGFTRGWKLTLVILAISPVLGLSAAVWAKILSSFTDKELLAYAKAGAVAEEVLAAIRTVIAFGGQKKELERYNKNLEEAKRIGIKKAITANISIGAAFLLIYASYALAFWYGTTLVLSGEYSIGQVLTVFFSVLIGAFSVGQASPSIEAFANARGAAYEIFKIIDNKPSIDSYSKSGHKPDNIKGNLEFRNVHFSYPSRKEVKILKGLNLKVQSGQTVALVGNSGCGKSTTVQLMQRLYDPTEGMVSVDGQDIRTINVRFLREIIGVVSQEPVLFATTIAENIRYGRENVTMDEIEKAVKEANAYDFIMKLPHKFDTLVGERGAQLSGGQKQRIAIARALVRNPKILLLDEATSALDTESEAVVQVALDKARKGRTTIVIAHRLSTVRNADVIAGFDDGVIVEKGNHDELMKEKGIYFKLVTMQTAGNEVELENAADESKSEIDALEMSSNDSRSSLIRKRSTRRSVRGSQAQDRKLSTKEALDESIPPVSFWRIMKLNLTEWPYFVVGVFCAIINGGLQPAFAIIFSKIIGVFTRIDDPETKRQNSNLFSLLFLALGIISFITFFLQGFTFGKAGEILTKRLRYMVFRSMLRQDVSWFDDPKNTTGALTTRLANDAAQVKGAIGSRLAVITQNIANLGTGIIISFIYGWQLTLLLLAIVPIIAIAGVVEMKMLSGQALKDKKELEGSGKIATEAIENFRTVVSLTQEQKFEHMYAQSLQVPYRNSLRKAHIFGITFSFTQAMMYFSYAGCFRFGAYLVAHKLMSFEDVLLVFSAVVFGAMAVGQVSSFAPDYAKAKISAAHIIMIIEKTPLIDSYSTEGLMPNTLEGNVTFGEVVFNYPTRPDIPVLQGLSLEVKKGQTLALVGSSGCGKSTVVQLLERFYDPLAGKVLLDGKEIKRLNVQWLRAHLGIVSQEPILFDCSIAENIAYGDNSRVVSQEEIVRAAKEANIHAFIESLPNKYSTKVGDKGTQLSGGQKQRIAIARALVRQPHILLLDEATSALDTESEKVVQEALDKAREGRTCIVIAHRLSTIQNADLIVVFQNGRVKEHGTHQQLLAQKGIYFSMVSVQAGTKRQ
Protocol: The substrate properties of a substance for P-gp (ABCB1) were determined by means of a flux assay using LLC-PK1 cells which overexpress P-gp (L-MDR1 cells) [A. H. Schinkel et al., J. Clin. Invest. 96, 1698-1705 (1995)]. For this purpose, the LLC-PK1 cells or L-MDR1 cells were cultured on 96-well filter plates for 3-4 days. For determination of the permeation, the respective test substance, alone or in the presence of an inhibitor (such as Ivermectin or Verapamil, for example), was applied in a HEPES buffer to the cells either apically (A) or basally (B) and incubated for 2 hours. After 0 hours and after 2 hours, samples were taken from the cis and trans compartments. The samples were separated by HPLC using reverse phase columns. The HPLC system was coupled via a Turbo Ion Spray Interface to a Triple Quadropol mass spectrometer API 3000 (Applied Biosystems Applera, Darmstadt, Germany). The permeability was evaluated on the basis of a Papp value which was calculated using the formula published by Schwab et al. [D. Schwab et al., J. Med. Chem. 46, 1716-1725 (2003)].

SMILES | Papp B→A at 2 h [1] | Tubulin polymerization in the presence of toxophore in [%]. Tubulin polymerization rate at 1 μM MMAF set at 100% (tubulin; toxophore 1 μM) | Tubulin polymerization in the presence of toxophore in [%]. Tubulin polymerization rate at 1 μM MMAF set at 100% (tubulin; toxophore 10 μM) | Papp B→A at 2 h [2]
CC[C@H](C)[C@@H]([C@@H](CC(=O)N1CCC[C@H]1[C@H](OC)[C@@H](C)C(=O)N[C@@H](Cc1ccc(O)cc1)C(=O)N1CCCCO1)OC)N(C)C(=O)[C@@H](NC(=O)[C@H](C(C)C)N(C)CCCCCC(=O)NCCCC[C@H](N)C(=O)O)C(C)C [Example 127, N-(6-{[(5S)-5-Amino-5-carboxypentyl]amino}-6-oxohexyl)-N-methyl-L-valyl-N-[(3R,4S,5S)-1-{(2S)-2-[(1R,2R)-3-{[(2S)-3-(4-hydroxyphenyl)-1-(1,2-oxazinan-2-yl)-1-oxopropan-2-yl]amino}-1-methoxy-2-methyl-3-oxopropyl]pyrrolidin-1-yl}-3-methoxy-5-methyl-1-oxoheptan-4-yl]-N-methyl-L-valinamide trifluoroacetate] (X1-V[Dil][Dolaproine]Y-{Oxazinan2yl(1,2)}) | 0.15 ×10⁻⁶ cm/s |  |  | 
CC[C@H](C)[C@@H]([C@@H](CC(=O)N1CCC[C@H]1[C@H](OC)[C@@H](C)C(=O)N[C@@H](Cc1ccccc1)C(=O)NCc1ccccc1)OC)N(C)C(=O)[C@@H](NC(=O)[C@H](C(C)C)N(C)CCCC(=O)NNC(=O)CCCCCN1C(=O)CC(SC[C@H](N)C(=O)O)C1=O)C(C)C (stereo partly drawn) [Example 78, N-(4-{2-[6-(3-{[(2R)-2-Amino-2-carboxyethyl]sulphanyl}-2,5-dioxopyrrolidin-1-yl)hexanoyl]hydrazino}-4-oxobutyl)-N-methyl-L-valyl-N-[(3R,4S,5S)-1-{(2S)-2-[(1R,2R)-3-{[(2S)-1-(benzylamino)-1-oxo-3-phenylpropan-2-yl]amino}-1-methoxy-2-methyl-3-oxopropyl]pyrrolidin-1-yl}-3-methoxy-5-methyl-1-oxoheptan-4-yl]-N-methyl-L-valinamide] |  | 110% |  | 
CC[C@H](C)[C@@H]([C@@H](CC(=O)N1CCC[C@H]1[C@H](OC)[C@@H](C)C(=O)N[C@@H](Cc1c[nH]c2ccccc12)C(N)=O)OC)N(C)C(=O)[C@@H](NC(=O)[C@H](C(C)C)N(C)CCCCCCN1C(=O)CC(SC[C@H](N)C(=O)O)C1=O)C(C)C (stereo partly drawn) [Example 74, N-[6-(3-{[(2R)-2-Amino-2-carboxyethyl]sulphanyl}-2,5-dioxopyrrolidin-1-yl)hexyl]-N-methyl-L-valyl-N-[(3R,4S,5S)-1-{(2S)-2-[(1R,2R)-3-{[(2S)-1-amino-3-(1H-indol-3-yl)-1-oxopropan-2-yl]amino}-1-methoxy-2-methyl-3-oxopropyl]pyrrolidin-1-yl}-3-methoxy-5-methyl-1-oxoheptan-4-yl]-N-methyl-L-valinamide] (X2-V[Dil][Dolaproine]W-NH2) | 0.5 ×10⁻⁶ cm/s | 117% | 64% | 0.36 ×10⁻⁶ cm/s
CC[C@H](C)[C@@H]([C@@H](CC(=O)N1CCC[C@H]1[C@H](OC)[C@@H](C)C(=O)N[C@@H](Cc1c[nH]c2ccccc12)C(=O)N1CCCCO1)OC)N(C)C(=O)[C@@H](NC(=O)[C@H](C(C)C)N(C)CCOCCOCCOCCC(=O)NCCCC[C@H](N)C(=O)O)C(C)C [Example 117, N-[(18S)-[8-Amino-18-carboxy-12-oxo-3,6,9-trioxa-13-azaoctadec-1-yl]-N-methyl-L-valyl-N-[(3R,4S,5S)-1-{(2S)-2-[(1R,2R)-3-{[(2S)-3-(1H-indol-3-yl)-1-(1,2-oxazinan-2-yl)-1-oxopropan-2-yl]amino}-1-methoxy-2-methyl-3-oxopropyl]pyrrolidin-1-yl}-3-methoxy-5-methyl-1-oxoheptan-4-yl]-N-methyl-L-valinamide trifluoroacetate] (X3-V[Dil][Dolaproine]W-{Oxazinan2yl(1,2)}) |  | 60% and 78% |  | 
CC[C@H](C)[C@@H]([C@@H](CC(=O)N1CCC[C@H]1[C@H](OC)[C@@H](C)C(=O)N[C@@H](Cc1c[nH]c2ccccc12)C(=O)N1CCCCO1)OC)N(C)C(=O)[C@@H](NC(=O)[C@H]([C@@H](C)O)N(C)CCCCCC(=O)NCCCC[C@H](N)C(=O)O)C(C)C [Example 126, N-(6-{[(5S)-5-Amino-5-carboxypentyl]amino}-6-oxohexyl)-N-methyl-L-threonyl-N-[(3R,4S,5S)-1-{(2S)-2-[(1R,2R)-3-{[(2S)-3-(1H-indol-3-yl)-1-(1,2-oxazinan-2-yl)-1-oxopropan-2-yl]amino}-1-methoxy-2-methyl-3-oxopropyl]pyrrolidin-1-yl}-3-methoxy-5-methyl-1-oxoheptan-4-yl]-N-methyl-L-valinamide trifluoroacetate] (X4-V[Dil][Dolaproine]W-{Oxazinan2yl(1,2)}) | 0.18 ×10⁻⁶ cm/s |  |  | 
CC[C@H](C)[C@@H]([C@@H](CC(=O)N1CCC[C@H]1[C@H](OC)[C@@H](C)C(=O)N[C@@]1(C(=O)N2CCCCO2)C[C@@H]1c1ccccc1)OC)N(C)C(=O)[C@@H](NC(=O)[C@H](C(C)C)N(C)CCCC(=O)NNC(=O)CCCCCN1C(=O)CC(SC[C@H](N)C(=O)O)C1=O)C(C)C (stereo partly drawn) [Example 73, N-(4-{2-[6-(3-{[(2R)-2-Amino-2-carboxyethyl]sulphanyl}-2,5-dioxopyrrolidin-1-yl)hexanoyl]hydrazino}-4-oxobutyl)-N-methyl-L-valyl-N-[(3R,4S,5S)-3-methoxy-1-{(2S)-2-[(1R,2R)-1-methoxy-2-methyl-3-{[(1S,2R)-1-(1,2-oxazinan-2-ylcarbonyl)-2-phenylcyclopropyl]amino}-3-oxopropyl]pyrrolidin-1-yl}-5-methyl-1-oxoheptan-4-yl]-N-methyl-L-valinamide] | 0.25 ×10⁻⁶ cm/s | 120% |  | 0.21 ×10⁻⁶ cm/s
CC[C@H](C)[C@@H]([C@@H](CC(=O)N1CCC[C@H]1[C@H](OC)[C@@H](C)C(=O)N[C@@H](Cc1c[nH]c2ccccc12)C(=O)O)OC)N(C)C(=O)[C@@H](NC(=O)[C@H](C(C)C)N(C)CCCC(=O)NNC(=O)CCCCCN1C(=O)CC(SC[C@H](N)C(=O)O)C1=O)C(C)C (stereo partly drawn) [Example 72, N-(4-{2-[6-(3-{[(2R)-2-Amino-2-carboxyethyl]sulphanyl}-2,5-dioxopyrrolidin-1-yl)hexanoyl]hydrazino}-4-oxobutyl)-N-methyl-L-valyl-N-[(3R,4S,5S)-1-{(2S)-2-[(1R,2R)-3-{[(1S)-1-carboxy-2-(1H-indol-3-yl)ethyl]amino}-1-methoxy-2-methyl-3-oxopropyl]pyrrolidin-1-yl}-3-methoxy-5-methyl-1-oxoheptan-4-yl]-N-methyl-L-valinamide] | 0.16 ×10⁻⁶ cm/s | 109% | 27% | 0.36 ×10⁻⁶ cm/s
CC[C@H](C)[C@@H]([C@@H](CC(=O)N1CCC[C@H]1[C@H](OC)[C@@H](C)C(=O)N[C@@H](Cc1c[nH]c2ccccc12)C(=O)N1CCCCO1)OC)N(C)C(=O)[C@@H](NC(=O)[C@H](C(C)C)N(C)CCCCCCN1C(=O)CC(SC[C@H](N)C(=O)O)C1=O)C(C)C (stereo partly drawn) [Example 76, N-[6-(3-{[(2R)-2-Amino-2-carboxyethyl]sulphanyl}-2,5-dioxopyrrolidin-1-yl)hexyl]-N-methyl-L-valyl-N-[(3R,4S,5S)-1-{(2S)-2-[(1R,2R)-3-{[(2S)-3-(1H-indol-3-yl)-1-(1,2-oxazinan-2-yl)-1-oxopropan-2-yl]amino}-1-methoxy-2-methyl-3-oxopropyl]pyrrolidin-1-yl}-3-methoxy-5-methyl-1-oxoheptan-4-yl]-N-methyl-L-valinamide] (X2-V[Dil][Dolaproine]W-{Oxazinan2yl(1,2)}) |  | 121% | 35% | 
